Experimental data published in patent US20250228915A1, “DISTINCT CD8+ T CELL PROGRAMMING IN THE TUMOR MICROENVIRONMENT CONTRIBUTES TO SEX BIAS IN CANCER” (Ohio State Innovation Foundation, priority 2022, published 2025).

What was measured:
[1] = system: AR-overexpressing Jurkat cells; details: 100 nM, prolonged stimulation over 9 days (FIG. 14B)
Description: Empty vector and androgen receptor-expressing Jurkat cells were seeded into six well plates (Gibco) at 2×10^5 cells per well and treated with 100 nM testosterone (Sigma) or DHT (Millipore), alongside methanol vehicle control (Thermo Fisher). Every three days, cells were counted using the BioRad TC20 automated cell counter, passaged, and re-stimulated with the same androgen concentrations over a time course of 3, 6, and 9 days.

[2] = system: human Tcf7 promoter in EGFP-C1-AR overexpressing HEK293FT cells; details: AR-transfected HEK293FT, 24 h, 500 ng/mL testosterone or 50 nM DHT; AR dependent (FIG. 7E)
Description: WT or mutated human Tcf7 promoter sequence of one kb upstream from its transcriptional start site was cloned into the pMCS-Red Firefly Luciferase vector (Thermo Fisher). Mutants lacked individual (“Mut 1-4”) or all putative AR binding sites. Briefly, 40,000 HEK293FT cells were grown on a 96 well plate at 80% confluence. […] Renilla luciferase gene expression was used to ensure transfection efficiency (Thermo Fisher). Twenty four hours after transfection, cells were treated with 500 ng/ml testosterone or 50 nM DHT for another 24 hours. Cells were then harvested and luciferase activity was analyzed by using Dual-Luciferase Reporter Assay System (Promega).

[3] = system: MB49 mouse urothelial carcinoma cells; assay: MB49 tumor growth in WT mice under daily vehicle or enzalutamide; assay type: in vivo; details: male WT mice, MB49 subcutaneous; enzalutamide 25 mg/kg daily oral gavage from Day 5 vs vehicle (FIG. 5J)
Description: MB49 (a gift from C. Voelkel-Johnson from the Medical University of South Carolina) and BKL171 mouse urothelial carcinoma cells were cultured in Dulbecco's modified Eagle's medium with 10% heat-inactivated fetal bovine serum and 1% penicillin/streptomycin. 5×10^5 tumor cells were resuspended in 100 μL ice cold PBS for subcutaneous injection into the right flank of a mouse. For antibody-mediated T cell depletion experiments, mice were injected intraperitoneally with 200 μg of anti-mouse CD4 (Clone GK1.5, BioXCell) and/or CD8 neutralizing antibodies (Clone 53-6.7, BioXCell), followed by 100 μg thereafter on the indicated days. For experiments involving enzalutamide, mice were treated daily with either vehicle control or enzalutamide (25 mg/kg) in 1% carboxymethylcellulose with 0.1% Tween 80 and 2.5% DMSO through oral gavage starting on Day 5 post MB49 subcutaneous injection. Tumor surface area (width×length mm^2) was measured using an electronic caliper starting on Day 4 post implantation.

[4] = system: CD8+ T cells (Tcf7, Ar transcripts); assay: qPCR of naïve CD8+ T cells stimulated with testosterone, type I IFN or both; assay type: cell-based, mouse
Description: Mouse spleens and tumors were mechanically disrupted, with the latter additionally subjected to digestion with 1 mg/mL Collagenase D (Roche) for 30 min at 37° C. while shaken at 125 rpm. Excess volume of ice-cold PBS with 2% bovine serum albumin was used to inactivate the enzymatic activity. Red Blood Cell Lysis Buffer (BioLegend) was utilized on tissues before they were passed through 70 µm filters to prepare single cell suspensions. For cytokine production experiments, cells were re-stimulated by 50 ng/mL PMA (Sigma), 1 μg/mL Ionomycin (Sigma) and 1× Brefeldin A (BioLegend) in a 48-well plate for 2 hours at 37° C. For in vitro cultures, purified CD8^+ T cells were left untreated or stimulated with 50 ng/mL testosterone (Sigma) and/or 50 U/mL mouse IFN alpha A (PBL Assay Science). Cells were stained at 4° C. with eFluor506 fixable viability dye for 10 minutes (Invitrogen), followed by extracellular surface markers and FcR block concurrently for 30 minutes. All intracellular staining was performed using the Foxp3 transcription factor staining kit (Invitrogen) according to the manufacturer's instructions. […]
RNA was extracted from FACS/MACS-isolated CD8^+ T cells and reverse-transcribed using RNeasy Micro Kit (Qiagen) and SuperScript™ IV VILO™ Master Mix with ezDNase™ Enzyme (ThermoFisher Scientific), respectively. Quantitative PCR was performed with the following primers: […]

SMILES	proliferation [1]	Tcf7 promoter activity (luciferase) [2]	tumor growth [3]	Ar expression (qPCR) ([4]; female CD8+ T cells, testosterone (FIG. 7D))	Tcf7 expression (qPCR) ([4]; male CD8+ T cells, acute testosterone exposure, 6 hours (FIG. 7D))
C[C@]12CCC(=O)C[C@@H]1CC[C@@H]1[C@@H]2CC[C@]2(C)[C@@H](O)CC[C@@H]12 [DHT, dihydrotestosterone]	decreased proliferation	stimulated	–	–	–
CNC(=O)c1ccc(N2C(=S)N(c3ccc(C#N)c(C(F)(F)F)c3)C(=O)C2(C)C)cc1F [enzalutamide]	–	–	partial protection against tumor growth	–	–
C[C@]12CC[C@H]3[C@@H](CCC4=CC(=O)CC[C@@]43C)[C@@H]1CC[C@@H]2O [testosterone]	decreased proliferation	stimulated	–	induction of Ar expression	significantly increased
